Source: ChEMBL document CHEMBL4699455, “2H-1,2,3-Triazole-chalcones as novel cytotoxic agents against prostate cancer” (Bioorg Med Chem Lett, 2020)
Active and inactive are the calls of the source. The rule behind the calls is not given here.

Assays:
PC-3 [1] = assay: Cytotoxicity against human PC-3 cells assessed as reduction in cell viability measured after 24 hrs by MTT assay; type: functional, cell-based; conditions: PC-3, 24 h
PC-3 [2] = assay: Cytotoxicity against human PC-3 cells assessed as reduction in cell viability at 100 uM measured after 24 hrs by MTT assay relative to control; type: functional
PC-3 [3] = assay: Cytotoxicity against human PC-3 cells assessed as reduction in cell viability at 25 uM measured after 24 hrs by MTT assay relative to control; type: functional
PC-3 [4] = assay: Cytotoxicity against human PC-3 cells assessed as reduction in cell viability at 10 uM measured after 24 hrs by MTT assay relative to control; type: functional
PC-3 [5] = assay: Cytotoxicity against human PC-3 cells assessed as reduction in cell viability at 100 uM measured after 24 hrs by MTT assay; type: functional, cell-based
PC-3 [6] = assay: Cytotoxicity against human PC-3 cells assessed as reduction in cell viability at 50 uM measured after 24 hrs by MTT assay relative to control; type: functional

| SMILES | IC50 (PC-3 [1]) [µM] | Activity (PC-3 [2]) [%] | Activity (PC-3 [3]) [%] | Activity (PC-3 [4]) [%] | Activity (PC-3 [5]) | Activity (PC-3 [6]) [%] |
| --- | --- | --- | --- | --- | --- | --- |
| O=C(/C=C/c1cnn(-c2ccccc2)n1)c1ccccc1 | 28.6 | 6.38 | 44.7 | 73.62 |  |  |
| C/C(=C\c1cnn(-c2ccccc2)n1)C(=O)c1ccccc1 |  |  |  |  | inactive |  |
| O=C(/C=C/c1cnn(-c2ccccc2)n1)c1cccs1 | 47.9 | 24.23 |  |  |  | 50 |
| COc1cc(-c2cccs2)cc(-c2nnn(Cc3ccccc3)c2C)n1 | 1.03 |  |  |  |  |  |
| COc1ccc(C(=O)/C=C/c2cnn(-c3ccccc3)n2)c(OC)c1 | 25.6 | 5.37 | 16.03 | 73.03 |  |  |
| C/C(=C\c1cnn(-c2ccccc2)n1)C(=O)c1ccc(C(F)(F)F)cc1 |  |  |  |  | inactive |  |
| C/C(=C\c1cnn(-c2ccccc2)n1)C(=O)c1ccc(F)cc1 |  |  |  |  | inactive |  |
| Cc1ccc(C(=O)/C=C/c2cnn(-c3ccccc3)n2)c(C)c1 | 15.6 | 0 | 39.03 | 85.61 |  | 3 |
| COc1cccc2c1C(=O)c1c(O)c3c(c(O)c1C2=O)C[C@@](O)(C(=O)CO)C[C@@H]3O[C@H]1C[C@H](N)[C@H](O)[C@H](C)O1 [DOXORUBICIN] | 0.77 |  |  |  |  |  |
